Patent US20160297833A1, “THIENOPYRIMIDINES AS MKNK1 AND MKNK2 INHIBITORS” (BAYER PHARMA AKTIENGESELLSCHAFT, priority 2013, published 2016)

Biological target: T1, human full-length MKNK1 (Homo sapiens, UniProt Q9BUB5, T385D)
T1 construct: GST (N); purchased Carna Biosciences 02-145; host or cells: insect cells (baculovirus expression system)
Test: MKNK1 kinase high ATP assay (TR-FRET)
Assay type: biochemical
Settings: Table 1; MKNK1 kinase high ATP assay, 2 mM ATP; read-out: MKNK1 IC50
Procedure: MKNK1 Kinase High ATP Assay
MKNK1-inhibitory activity at high ATP of compounds of the present invention after their preincubation with MKNK1 was quantified employing the TR-FRET-based MKNK1 high ATP assay as described in the following paragraphs.
As substrate for the kinase reaction the biotinylated peptide biotin-Ahx-[…] (C-terminus in amide form) was used, which can be purchased e.g. from the company Biosyntan (Berlin-Buch, Germany).
For the assay 50 nL of a 100 fold concentrated solution of the test compound in DMSO was pipetted into a black low volume 384 well microtiter plate (Greiner Bio-One, Frickenhausen, Germany), 2 μL of a solution of MKNK1 in aqueous assay buffer [50 mM HEPES pH 7.5, 5 mM MgCl2, 1.0 mM dithiothreitol, 0.005% (v/v) Nonidet-P40 (Sigma)] was added and the mixture was incubated for 15 min at 22° C. to allow pre-binding of the test compounds to the enzyme before the start of the kinase reaction. Then the kinase reaction was started by the addition of 3 μL of a solution of adenosine-tri-phosphate (ATP, 3.3 mM=>final conc. in the 5 μL assay volume is 2 mM) and substrate (0.1 μM=>final conc. in the 5 μL assay volume is 0.06 μM) in assay buffer and the resulting mixture was incubated for a reaction time of 30 min at 22° C. The concentration of MKNK1 was adjusted depending of the activity of the enzyme lot and was chosen appropriate to have the assay in the linear range, typical concentrations were in the range of 0.003 μg/mL. The reaction was stopped by the addition of 5 μL of a solution of TR-FRET detection reagents (5 nM streptavidine-XL665 [Cisbio Bioassays, Codolet, France] and 1 nM anti-ribosomal protein S6 (pSer236)-antibody from Invitrogen [#44921G] and 1 nM LANCE EU-W1024 labeled ProteinG [Perkin-Elmer, product no. AD0071]) in an aqueous EDTA-solution (100 mM EDTA, 0.1% (w/v) bovine serum albumin in 50 mM HEPES pH 7.5).
The resulting mixture was incubated for 1 h at 22° C. to allow the formation of complex between the phosphorylated biotinylated peptide and the detection reagents. Subsequently the amount of phosphorylated substrate was evaluated by measurement of the resonance energy transfer from the Eu-chelate to the streptavidine-XL. Therefore, the fluorescence emissions at 620 nm and 665 nm after excitation at 350 nm were measured in a TR-FRET reader, e.g. a Rubystar (BMG Labtechnologies, Offenburg, Germany) or a Viewlux (Perkin-Elmer). The ratio of the emissions at 665 nm and at 622 nm was taken as the measure for the amount of phosphorylated substrate.

T1 sequence (Q9BUB5 1-424 isoform Q9BUB5-2 T344D): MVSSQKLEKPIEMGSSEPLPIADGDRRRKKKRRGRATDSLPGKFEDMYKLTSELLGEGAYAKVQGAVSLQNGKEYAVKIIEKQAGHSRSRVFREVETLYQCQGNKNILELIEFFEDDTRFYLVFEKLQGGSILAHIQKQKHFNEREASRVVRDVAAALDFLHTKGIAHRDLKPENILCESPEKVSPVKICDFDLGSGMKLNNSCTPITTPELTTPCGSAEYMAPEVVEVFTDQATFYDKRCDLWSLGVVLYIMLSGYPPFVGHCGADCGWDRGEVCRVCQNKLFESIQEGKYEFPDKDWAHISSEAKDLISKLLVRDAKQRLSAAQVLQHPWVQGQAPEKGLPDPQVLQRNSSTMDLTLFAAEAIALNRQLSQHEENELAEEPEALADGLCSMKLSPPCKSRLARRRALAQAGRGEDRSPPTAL

Q: With `COc1cc2[nH]ncc2cc1Nc1ncnc2sc3c(c12)CC[C@H](C(=O)N1CC(C)(O)C1)C3` [Example 36, (3-hydroxy-3-Methylazetidin-1-yl){(7S)-4-[(6-methoxy-1H-indazol-5-yl)amino]-5,6,7,8-tetrahydro[1]benzothieno[2,3-d]pyrimidin-7-yl}methanone] as the compound, how does the IC50 read?
A: 0.5 nM

Q: For `COc1cc2[nH]ncc2cc1Nc1ncnc2sc3c(c12)CC[C@H](C(=O)N(CCO)C1COC1)C3` [Example 37, (7S)—N-(2-Hydroxyethyl)-4-[(6-methoxy-1H-indazol-5-yl)amino]-N-(oxetan-3-yl)-5,6,7,8-tetrahydro[1]benzothieno[2,3-d]pyrimidine-7-carboxamide], which IC50 is on record?
A: 0.3 nM

Q: Which IC50 does the source give for `COc1cc2[nH]ncc2cc1Nc1ncnc2sc3c(c12)CC[C@H](C(=O)N(C)CCO)C3` [Example 38, (7S)—N-(2-Hydroxyethyl)-4-[(6-methoxy-1H-indazol-5-yl)amino]-N-methyl-5,6,7,8-tetrahydro[1]benzothieno[2,3-d]pyrimidine-7-carboxamide] here?
A: 0.3 nM

Q: With `COc1cc2[nH]ncc2cc1Nc1ncnc2sc3c(c12)CC[C@@H](C(=O)N(C)CCO)C3` [Example 39, (7R)—N-(2-Hydroxyethyl)-4-[(6-methoxy-1H-indazol-5-yl)amino]-N-methyl-5,6,7,8-tetrahydro[1]benzothieno[2,3-d]pyrimidine-7-carboxamide] as the compound, how does the IC50 read?
A: 9.4 nM

Q: How did the IC50 turn out when `CCN(CCO)C(=O)[C@H]1CCc2c(sc3ncnc(Nc4cc5cn[nH]c5cc4OC)c23)C1` [Example 40, (7S)—N-Ethyl-N-(2-hydroxyethyl)-4-[(6-methoxy-1H-indazol-5-yl)amino]-5,6,7,8-tetrahydro[1]benzothieno[2,3-d]pyrimidine-7-carboxamide] was run?
A: 0.2 nM

Q: For `CCN(CCO)C(=O)[C@@H]1CCc2c(sc3ncnc(Nc4cc5cn[nH]c5cc4OC)c23)C1` [Example 41, (7R)—N-Ethyl-N-(2-hydroxyethyl)-4-[(6-methoxy-1H-indazol-5-yl)amino]-5,6,7,8-tetrahydro[1]benzothieno[2,3-d]pyrimidine-7-carboxamide], which IC50 is on record?
A: 10.5 nM

Q: `COCCN(CCO)C(=O)[C@H]1CCc2c(sc3ncnc(Nc4cc5cn[nH]c5cc4OC)c23)C1` [Example 42, (7S)—N-(2-Hydroxyethyl)-N-(2-methoxyethyl)-4-[(6-methoxy-1H-indazol-5-yl)amino]-5,6,7,8-tetrahydro[1]benzothieno[2,3-d]pyrimidine-7-carboxamide] was tested. Which IC50 did it give?
A: 0.3 nM

Q: Which IC50 does the source give for `COCCN(CCO)C(=O)[C@@H]1CCc2c(sc3ncnc(Nc4cc5cn[nH]c5cc4OC)c23)C1` [Example 43, (7R)—N-(2-Hydroxyethyl)-N-(2-methoxyethyl)-4-[(6-methoxy-1H-indazol-5-yl)amino]-5,6,7,8-tetrahydro[1]benzothieno[2,3-d]pyrimidine-7-carboxamide] here?
A: 8.9 nM

Q: For `COc1cc2[nH]ncc2cc1Nc1ncnc2sc3c(c12)CC[C@H](C(=O)N1CC(N(C)C)C1)C3` [Example 44, [3-(Dimethylamino)azetidin-1-yl]{(7S)-4-[(6-methoxy-1H-indazol-5-yl)amino]-5,6,7,8-tetrahydro[1]benzothieno[2,3-d]pyrimidin-7-yl}methanone], which IC50 is on record?
A: 0.2 nM

Q: Which IC50 does the source give for `COc1cc2[nH]ncc2cc1Nc1ncnc2sc3c(c12)CC[C@H](C(=O)N1CC[C@H](N(C)C)C1)C3` [Example 45, [(3S)-3-(Dimethylamino)pyrrolidin-1-yl]{(7S)-4-[(6-methoxy-1H-indazol-5-yl)amino]-5,6,7,8-tetrahydro[1]benzothieno[2,3-d]pyrimidin-7-yl}methanone] here?
A: 0.2 nM

Q: Which IC50 does the source give for `COc1cc2[nH]ncc2cc1Nc1ncnc2sc3c(c12)CC[C@H](C(=O)N1CCC(N(C)C)CC1)C3` [Example 46, [4-(Dimethylamino)piperidin-1-yl]{(7S)-4-[(6-methoxy-1H-indazol-5-yl)amino]-5,6,7,8-tetrahydro[1]benzothieno[2,3-d]pyrimidin-7-yl}methanone] here?
A: 0.1 nM

Q: `COc1cc2[nH]ncc2cc1Nc1ncnc2sc3c(c12)CC[C@H](C(=O)N1CCC(N(C)CCN(C)C)CC1)C3` [Example 47, (4-{[2-(Dimethylamino)ethyl](methyl)amino}piperidin-1-yl){(7S)-4-[(6-methoxy-1H-indazol-5-yl)amino]-5,6,7,8-tetrahydro[1]benzothieno[2,3-d]pyrimidin-7-yl}methanone] was tested. Which IC50 did it give?
A: 0.5 nM

Q: For `COc1cc2[nH]ncc2cc1Nc1ncnc2sc3c(c12)CC[C@H](C(=O)N1CCN(C)CC1)C3` [Example 48, {(7S)-4-[(6-Methoxy-1H-indazol-5-yl)amino]-5,6,7,8-tetrahydro[1]benzothieno[2,3-d]pyrimidin-7-yl}(4-methylpiperazin-1-yl)methanone], which IC50 is on record?
A: 0.4 nM

Q: With `COc1cc2[nH]ncc2cc1Nc1ncnc2sc3c(c12)CC[C@H](C(=O)N1CCN(C(=O)N(C)C)CC1)C3` [Example 49, 4-({(7S)-4-[(6-Methoxy-1H-indazol-5-yl)amino]-5,6,7,8-tetrahydro[1]benzothieno[2,3-d]pyrimidin-7-yl}carbonyl)-N,N-dimethylpiperazine-1-carboxamide] as the compound, how does the IC50 read?
A: 0.1 nM

Q: How did the IC50 turn out when `COc1cc2[nH]ncc2cc1Nc1ncnc2sc3c(c12)CC[C@H](C(=O)N1CCN(CCN(C)C)CC1)C3` [Example 50, {4-[2-(Dimethylamino)ethyl]piperazin-1-yl}{(7S)-4-[(6-methoxy-1H-indazol-5-yl)amino]-5,6,7,8-tetrahydro[1]benzothieno[2,3-d]pyrimidin-7-yl}methanone] was run?
A: 0.1 nM

Q: With `COc1cc2[nH]ncc2cc1Nc1ncnc2sc3c(c12)CC[C@H](C(=O)N(C)CCN(C)C)C3` [Example 51, (7S)—N-[2-(Dimethylamino)ethyl]-4-[(6-methoxy-1H-indazol-5-yl)amino]-N-methyl-5,6,7,8-tetrahydro[1]benzothieno[2,3-d]pyrimidine-7-carboxamide] as the compound, how does the IC50 read?
A: 0.1 nM

Q: With `COc1cc2[nH]ncc2cc1Nc1ncnc2sc3c(c12)CC[C@H](C(=O)N(C)CC(=O)N(C)C)C3` [Example 52, (7S)—N-[2-(Dimethylamino)-2-oxoethyl]-4-[(6-methoxy-1H-indazol-5-yl)amino]-N-methyl-5,6,7,8-tetrahydro[1]benzothieno[2,3-d]pyrimidine-7-carboxamide] as the compound, how does the IC50 read?
A: 0.2 nM

Q: How did the IC50 turn out when `CCN(CCN(C)C)C(=O)[C@H]1CCc2c(sc3ncnc(Nc4cc5cn[nH]c5cc4OC)c23)C1` [Example 53, (7S)—N-[2-(Dimethylamino)ethyl]-N-ethyl-4-[(6-methoxy-1H-indazol-5-yl)amino]-5,6,7,8-tetrahydro[1]benzothieno[2,3-d]pyrimidine-7-carboxamide] was run?
A: 0.3 nM

Q: For `COc1cc2[nH]ncc2cc1Nc1ncnc2sc3c(c12)CC[C@H](C(=O)N(C)CCCN(C)C)C3` [Example 54, (7S)—N-[3-(Dimethylamino)propyl]-4-[(6-methoxy-1H-indazol-5-yl)amino]-N-methyl-5,6,7,8-tetrahydro[1]benzothieno[2,3-d]pyrimidine-7-carboxamide], which IC50 is on record?
A: 0.4 nM

Q: Which IC50 does the source give for `COc1cc2[nH]ncc2cc1Nc1ncnc2sc3c(c12)CC[C@H](C(=O)N(C)CCC(=O)N(C)C)C3` [Example 55, (7S)—N-[3-(Dimethylamino)-3-oxopropyl]-4-[(6-methoxy-1H-indazol-5-yl)amino]-N-methyl-5,6,7,8-tetrahydro[1]benzothieno[2,3-d]pyrimidine-7-carboxamide] here?
A: 0.1 nM

Q: With `COc1cc2[nH]ncc2cc1Nc1ncnc2sc3c(c12)CC[C@H](C(=O)N(CCC(=O)N(C)C)C1CC1)C3` [Example 56, (7S)—N-Cyclopropyl-N-[3-(dimethylamino)-3-oxopropyl]-4-[(6-methoxy-1H-indazol-5-yl)amino]-5,6,7,8-tetrahydro[1]benzothieno[2,3-d]pyrimidine-7-carboxamide] as the compound, how does the IC50 read?
A: 0.3 nM

Q: How did the IC50 turn out when `COc1cc2[nH]ncc2cc1Nc1ncnc2sc3c(c12)CC[C@H](C(=O)N(C)CCN(C)CCN(C)C)C3` [Example 57, (7S)—N-(2-{[2-(Dimethylamino)ethyl](methyl)amino}ethyl)-4-[(6-methoxy-1H-indazol-5-yl)amino]-N-methyl-5,6,7,8-tetrahydro[1]benzothieno[2,3-d]pyrimidine-7-carboxamide] was run?
A: 0.7 nM

Same assay, conditions: Table 2; ratio of the IC50-value of an R-enantiomer and its corresponding S-enantiomer

Q: Which “Activity-Ratio MKNK1” value does the source give for `COc1cc2[nH]ncc2cc1Nc1ncnc2sc3c(c12)CC[C@H](C(=O)N(C)CCO)C3` [Example 38, (7S)—N-(2-Hydroxyethyl)-4-[(6-methoxy-1H-indazol-5-yl)amino]-N-methyl-5,6,7,8-tetrahydro[1]benzothieno[2,3-d]pyrimidine-7-carboxamide] here?
A: 28.1

Q: With `CCN(CCO)C(=O)[C@H]1CCc2c(sc3ncnc(Nc4cc5cn[nH]c5cc4OC)c23)C1` [Example 40, (7S)—N-Ethyl-N-(2-hydroxyethyl)-4-[(6-methoxy-1H-indazol-5-yl)amino]-5,6,7,8-tetrahydro[1]benzothieno[2,3-d]pyrimidine-7-carboxamide] as the compound, how does the “Activity-Ratio MKNK1” value read?
A: 45.9

Q: Which “Activity-Ratio MKNK1” value does the source give for `COCCN(CCO)C(=O)[C@H]1CCc2c(sc3ncnc(Nc4cc5cn[nH]c5cc4OC)c23)C1` [Example 42, (7S)—N-(2-Hydroxyethyl)-N-(2-methoxyethyl)-4-[(6-methoxy-1H-indazol-5-yl)amino]-5,6,7,8-tetrahydro[1]benzothieno[2,3-d]pyrimidine-7-carboxamide] here?
A: 33.2
